Patent publication US11584765B2 (priority 2017, dated 2023)

System: C57BL/6 mice
Assay: animal or person
Type: in vivo
Details: Mus musculus, sc, 0.5 h, s.c. administration, 30 min, 55° C. water, read-out: ED50 (mg/kg) at 30 min on C57BL/6 mice in Warm-water Tail-flick Test

Row | Compound | ED50 [mg/kg]
1 | CC(C)OC[C@@]1(CCc2cccs2)CCN(Cc2cccnc2)C1 [Compound 388, (S)-3-((3-(isopropoxy-methyl)-3-(2-(thiophen-2-yl)ethyl)pyrrolidin-1-yl)methyl)pyridine] | < 10
2 | CCNc1ccc(CN2CCC(CCc3ccccc3)(CNC)CC2)cc1 [Compound 119, N-ethyl-4-((4-((methylamino)methyl)-4-phenethylpiperidin-1-yl)methyl)aniline] | > 10
3 | CCOCC1(CCc2ccccc2)CCN(Cc2ccc(COC)cc2)CC1 [Compound 129, 4-(ethoxymethyl)-1-(4-(methoxymethyl)benzyl)-4-phenethylpiperidine HC] | > 10
4 | CCOCC1(CCC2CC2)CCN(Cc2ccc(NC(C)=O)cc2)CC1 [Compound 101, N-(4-((4-(2-cyclopropylethyl)-4-(ethoxymethyl)piperidin-1-yl)methyl)phenyl)acetamide] | > 10
5 | CCOCC1(CCc2ccccc2)CCN(Cc2ccc3[nH]ccc3c2)CC1 [Compound 110, 5-((4-(ethoxymethyl)-4-phenethylpiperidin-1-yl)methyl)-1H-indole] | > 10
6 | CCOC[C@@]1(CCC2CC2)CCN(C2(c3ccc(C)nc3)CC2)C1 [Compound 466, (S)-5-(1-(3-(2-cyclopropylethyl)-3-(ethoxy-methyl)pyrrolidin-1-yl)cyclopropyl)-2-methylpyridine] | < 10
7 | FC(F)OC[C@@]1(CCc2cccs2)CCN(Cc2cccnc2)C1 [Compound 392, (S)-3-((3-((difluorometh-oxy)methyl)-3-(2-(thiophen-2-yl)ethyl)pyrrolidin-1-yl)methyl)pyridine] | < 10
8 | CCOCC1(CCc2ccccc2)CCN(CCc2ccc(NC(C)=O)cc2)CC1 [Compound 126, N-(4-(2-(4-(ethoxymethyl)-4-phenethylpiperidin-1-yl)ethyl)phenyl)acetamide] | > 10
9 | c1ccc(CCC2(C3CCCO3)CCN(Cc3ccccn3)C2)cc1 (centres unmarked) [Compound 225, 2-((3-phenethyl-3-(tetrahydrofuran-2-yl)pyrrolidin-1-yl)methyl)pyridine] | > 10
10 | COC(=O)C1(CCc2ccccc2)CCN(Cc2ccc(NC(C)=O)cc2)C1 (centres unmarked) [Compound 28, methyl 1-(4-acetamidobenzyl)-3-phenethylpyrrolidine-3-carboxylate] | < 10
11 | CCOC[C@@]1(CCc2nccc(OC)n2)CCN(C(C)(C)c2ccc(C)nc2)C1.Cl [Compound 377, (S)-2-(2-(3-(ethoxymethyl)-1-(2-(6-methylpyridin-3-yl)propan-2-yl)pyrrolidin-3-yl)ethyl)-4-methoxypyrimidine HCl] | < 10
12 | CCOC[C@@]1(CCc2cc(C)cs2)CCN(C(C)(C)c2ccc(C)nc2)C1 [Compound 355, (S)-5-(2-(3-(ethoxymethyl)-3-(2-(4-methylthiophen-2-yl)ethyl)pyrrolidin-1-yl)propan-2-yl)-2-methylpyridine] | < 10
13 | CC(=O)Nc1ccc(CN2CCC(CCc3ccsc3)(c3ccccn3)C2)cc1 (centres unmarked) [Compound 190, N-(4-((3-(pyridin-2-yl)-3-(2-(thiophen-3-yl)ethyl)pyrrolidin-1-yl)methyl)phenyl)acetamide] | > 10
14 | CCOCC1(CCc2ccccc2)CCN(Cc2ccc(CCOC)cc2)CC1 [Compound 128, 4-(ethoxymethyl)-1-(4-(2-methoxyethyl)benzyl)-4-phenethylpiperidine] | > 10
15 | Cc1ccc(CN2CCC(CCc3ccccc3)(c3ccccn3)CC2)cn1 [Compound 432, 2-methyl-5-((4-phenethyl-4-(pyridin-2-yl)piperidin-1-yl)methyl)pyridine] | < 10
16 | CCOCC1(CCc2cccs2)CCN(Cc2cnn(CC)c2)CC1 [Compound 256, 4-(ethoxymethyl)-1-((l-ethyl-1H-pyrazol-4-yl)methyl)-4-(2-(thiophen-2-yl)ethyl)piperidine] | < 10
17 | CCOCC1(CCc2cscc2C)CCN(Cc2cnn(C)c2)CC1 [Compound 280, 4-(ethoxymethyl)-1-((1-methyl-1H-pyrazol-4-yl)methyl)-4-(2-(4-methylthiophen-3-yl)ethyl)piperidine] | < 10
18 | c1ccc(CCC2(C3CCCO3)CCN(Cc3cnccn3)C2)cc1 (centres unmarked) [Compound 238, 2-((3-phenethyl-3-(tetrahydrofuran-2-yl)pyrrolidin-1-yl)methyl)pyrazine] | > 10
19 | CC(=O)Nc1ccc(CN2CCC(Cc3ccccc3)(c3ccccn3)CC2)cc1 [Compound 14, N-(4-((4-benzyl-4-(pyridin-2-yl)piperidin-1-yl)methyl)phenyl)acetamide] | > 10
20 | CCOC[C@@]1(CCc2ccc(F)s2)CCN(Cc2ccc(C)nc2)C1 [Compound 344] | < 10
21 | CCOCC1(CCc2ccccc2)CCN(Cc2ccc(Br)cc2)CC1 [Compound 150, 1-(4-bromobenzyl)-4-(ethoxymethyl)-4-phenethylpiperidine] | > 10
22 | CCOCC1(CCC2CC2)CCN(Cc2ccc(C)nc2)C1 (centres unmarked) [Compound 427, 5-((3-(2-cyclopropylethyl)-3-(ethoxy-methyl)pyrrolidin-1-yl)methyl)-2-methylpyridine] | < 10

Row | Compound | ED50 [mg/kg]
23 | CCOCC1(CCc2ccccc2)CCN(Cc2ccc(-c3nccs3)cc2)CC1 [Compound 134, 2-(4-((4-(ethoxymethyl)-4-phenethylpiperidin-1-yl)methyl)phenyl)thiazole] | > 10
24 | CCOCC1CCN(C(C)(C)c2ccc(C)nc2)C1.Cl (centres unmarked) [Compound 460, 5-(2-(3-(ethoxy-methyl)pyrrolidin-1-yl)propan-2-yl)-2-methylpyridine HCl] | < 10
25 | c1ccc(CCC2(C3CCCCO3)CCN(Cc3ccccc3-c3cccs3)C2)cc1 (centres unmarked) [Compound 209, 3-phenethyl-3-(tetrahydro-2H-pyran-2-yl)-1-(2-(thiophen-2-yl)benzyl)pyrrolidine] | > 10
26 | CCOC(C)C1(CCc2ccccc2)CCN(Cc2ccc(NC(C)=O)cc2)CC1.Cl (centres unmarked) [Compound 159, N-(4-((4-(1-ethoxyethyl)-4-phenethylpiperidin-1-yl)methyl)phenyl)acetamide HCl] | > 10
27 | CCOC[C@@]1(CCc2cccs2)CCN(Cc2ccc(OC)nc2)C1.Cl [Compound 452, (S)-5-((3-(ethoxymethyl)-3-(2-(thiophen-2-yl)ethyl)pyrrolidin-1-yl)methyl)-2-methoxypyridine HCl] | < 10
28 | CCOCC1(CCc2ccccc2)CCN(Cc2ccc(-c3nncs3)cc2)CC1 [Compound 138, 2-(4-((4-(ethoxymethyl)-4-phenethylpiperidin-1-yl)methyl)phenyl)-1,3,4-thiadiazole] | > 10
29 | CCOCC1(CCc2ccccc2)CCN(CC(O)c2ccc(C)nc2)C1 (centres unmarked) [Compound 338, 2-(3-(ethoxymethyl)-3-phenethylpyrrolidin-1-yl)-1-(6-methylpyridin-3-yl)ethanol] | > 10
30 | Cc1ncccc1CN1CCC(CCc2ccccc2)(C2CCCO2)C1 (centres unmarked) [Compound 263, 2-methyl-3-((3-phenethyl-3-(tetrahydrofuran-2-yl)pyrrolidin-1-yl)methyl)pyridine] | < 10
31 | CC(=O)Nc1ccc(CN2CCC(CCc3ccccc3)(c3ccco3)C2)cc1 (centres unmarked) [Compound 189, N-(4-((3-(furan-2-yl)-3-phenethylpyrrolidin-1-yl)methyl)phenyl)acetamide] | > 10
32 | CC(=O)Nc1ccc(CN2CCC(CCc3cccs3)(C3C=CCO3)CC2)cc1 (centres unmarked) [Compound 182, N-(4-((4-(2,5-dihydrofuran-2-yl)-4-(2-(thiophen-2-yl)ethyl)piperidin-1-yl)methyl)phenyl)acetamide] | > 10
33 | CCOCC1(CCc2ccccc2)CCN(C)CC1 [Compound 79, 4-(ethoxymethyl)-1-methyl-4-phenethylpiperidine] | > 10
34 | CCOC[C@@]1(CCc2cccs2)CCN(Cc2c(C)ccnc2C)C1 [Compound 404, (S)-3-((3-(ethoxymethyl)-3-(2-(thiophen-2-yl)ethyl)pyrrolidin-1-yl)methyl)-2,4-dimethylpyridine] | < 10
35 | CCOCC1(CCc2ccsc2)CCN(Cc2ccc(NC(C)=O)cc2)CC1 [Compound 147, N-(4-((4-(ethoxymethyl)-4-(2-(thiophen-3-yl)ethyl)piperidin-1-yl)methyl)phenyl)acetamide] | < 10
36 | CCOCC1(OCc2ccccc2)CCN(Cc2ccc(NC(C)=O)cc2)CC1 [Compound 122, N-(4-((4-(benzyloxy)-4-(ethoxymethyl)piperidin-1-yl)methyl)phenyl)acetamide] | > 10
37 | CC(=O)Nc1ccc(CN2CCC(CCc3ccccc3)(c3noc(C)n3)CC2)cc1 [Compound 11] | > 10
38 | Cc1ccc(C(C)N2CCC(CCc3ccccc3)(c3ccccn3)CC2)c(C)n1 (centres unmarked) [Compound 328, 2,6-dimethyl-3-(1-(4-phenethyl-4-(pyridin-2-yl)piperidin-1-yl)ethyl)pyridine] | < 10
39 | c1ccc(CCC2(C3CCCO3)CCN(Cc3cn[nH]c3)C2)cc1 (centres unmarked) [Compound 212, 4-((3-phenethyl-3-(tetrahydrofuran-2-yl)pyrrolidin-1-yl)methyl)-1H-pyrazole] | > 10
40 | CCOC[C@@]1(CCc2ccc(C)cc2)CCN(Cc2cccnc2)C1 [Compound 437, (S)-3-((3-(ethoxymethyl)-3-(4-methyl-phenethyl)pyrrolidin-1-yl)methyl)pyridine] | < 10
41 | CCOCC1(CCc2ccccc2)CCN(Cc2ccc(C(C)O)cc2)CC1.Cl (centres unmarked) [Compound 156, 1-(4-((4-(ethoxymethyl)-4-phenethylpiperidin-1-yl)methyl)phenyl)ethanol HCl] | > 10
42 | CC(=O)Nc1ccc(CN2CCC(CO)(CCc3ccccc3)CC2)cc1 [Compound 68, N-(4-((4-(hydroxymethyl)-4-phenethylpiperidin-1-yl)methyl)phenyl)acetamide] | > 10
43 | c1ccc(CCC2(C3CCCO3)CCN(Cc3cnn(-c4cccnc4)c3)C2)cc1 (centres unmarked) [Compound 265, 3-(4-((3-phenethyl-3-(tetrahydrofuran-2-yl)pyrrolidin-1-yl)methyl)-1H-pyrazol-1-yl)pyridine] | > 10
44 | CCOCC1(CCc2ccccc2)CCN(Cc2ccc(CC(=O)N(C)OC)cc2)CC1 [Compound 143, 2-(4-((4-(ethoxymethyl)-4-phenethylpiperidin-1-yl)methyl)phenyl)-N-methoxy-N-methylacetamide] | > 10
